Reference: patent US10405547B2, “Substituted cyclic amides as herbicides” (FMC Corporation, priority 2015, dated 2019)

Legend:
Assay type in all cases: in vivo
Conditions in all cases: 0 to 100 scale (0 no effect, 100 complete control)
[1] = tested on: blackgrass (Alopecurus myosuroides); assay: Test A postemergence, blackgrass
Method in brief: (§1)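 Injury scores (0 no effect, 100 complete control) were assigned by visually comparing treated with untreated plants after about 10 days of greenhouse growth. Seeds for soil treatment were sown into a loam and sand blend, while plants for foliar treatment grew in pots of that same blend.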

[2] = tested on: ryegrass, Italian (Lolium multiflorum); assay: Test A postemergence, Italian ryegrass
Method in brief: as §1

corn (Zea mays) = assay: Test A postemergence, corn
Method in brief: as §1

[3] = tested on: galium (catchweed bedstraw, Galium aparine); assay: Test A postemergence, galium
Method in brief: as §1

[4] = tested on: foxtail, giant (Setaria faberii); assay: Test A preemergence, giant foxtail
Method in brief: as §1

[5] = tested on: wheat (Triticum aestivum); assay: Test A postemergence, wheat
Method in brief: as §1

[6] = tested on: foxtail, giant (Setaria faberii); assay: Test A postemergence, giant foxtail
Method in brief: as §1

kochia (Kochia scoparia) [7] = assay: Test A preemergence, kochia
Method in brief: as §1

kochia (Kochia scoparia) [8] = assay: Test A postemergence, kochia
Method in brief: as §1

[9] = tested on: barnyardgrass (Echinochloa crus-galli); assay: Test A postemergence, barnyardgrass
Method in brief: as §1

[10] = tested on: pigweed (Amaranthus retroflexus); assay: Test A postemergence, pigweed
Method in brief: as §1

[11] = tested on: ryegrass, Italian (Lolium multiflorum); assay: Test A preemergence, Italian ryegrass
Method in brief: as §1

[12] = tested on: ragweed (common ragweed, Ambrosia elatior); assay: Test A preemergence, ragweed
Method in brief: as §1

[13] = tested on: barnyardgrass (Echinochloa crus-galli); assay: Test A preemergence, barnyardgrass
Method in brief: as §1

[14] = tested on: ragweed (common ragweed, Ambrosia elatior); assay: Test A postemergence, ragweed
Method in brief: as §1

[15] = tested on: pigweed (Amaranthus retroflexus); assay: Test A preemergence, pigweed
Method in brief: as §1

[16] = 125 g ai/ha, visual injury, approximately 10 days
[17] = 500 g ai/ha, visual injury, approximately 10 days

Row | SMILES | Plant response rating, Blackgrass [1, 16] | Plant response rating, Blackgrass [1, 17] | Plant response rating, Ryegrass, Italian [2, 16] | Plant response rating, Ryegrass, Italian [2, 17] | Plant response rating, Corn (corn (Zea mays); [16]) | Plant response rating, Corn (corn (Zea mays); [17]) | Plant response rating, Galium [3, 16] | Plant response rating, Galium [3, 17] | Plant response rating, Foxtail, Giant ([4]; 125 g ai/ha) | Plant response rating, Wheat [5, 16] | Plant response rating, Foxtail, Giant [6, 16] | Plant response rating, Kochia (kochia (Kochia scoparia) [7]; 125 g ai/ha) | Plant response rating, Kochia (kochia (Kochia scoparia) [8]; [16]) | Plant response rating, Barnyardgrass [9, 16] | Plant response rating, Pigweed [10, 16] | Plant response rating, Ryegrass, Italian ([11]; 125 g ai/ha) | Plant response rating, Ragweed ([12]; 125 g ai/ha) | Plant response rating, Barnyardgrass ([13]; 125 g ai/ha) | Plant response rating, Ragweed [14, 16] | Plant response rating, Pigweed ([15]; 125 g ai/ha) | other results
1 | O=C1NCC(c2cccc(COc3ccccc3)c2)C1C(=O)Nc1ccccc1F (stereo not shown) [Compound 19] | 0 | 0 | 0 | 0 | 0 | 0 | 0 | 0 | 30 | 0 | 20 | 0 | 0 | 20 | 0 | 0 | 0 | 30 | 0 | 0 | Plant response rating, Foxtail, Giant ([4]; 500 g ai/ha): 80; Plant response rating, Wheat [5, 17]: 0; Plant response rating, Foxtail, Giant [6, 17]: 40; Plant response rating, Kochia (kochia (Kochia scoparia) [7]; 500 g ai/ha): 40; Plant response rating, Kochia (kochia (Kochia scoparia) [8]; [17]): 0; Plant response rating, Barnyardgrass [9, 17]: 50; Plant response rating, Pigweed [10, 17]: 0; Plant response rating, Ryegrass, Italian ([11]; 500 g ai/ha): 0; Plant response rating, Ragweed ([12]; 500 g ai/ha): 0; Plant response rating, Barnyardgrass ([13]; 500 g ai/ha): 70; Plant response rating, Ragweed [14, 17]: 0; Plant response rating, Pigweed ([15]; 500 g ai/ha): 0
2 | O=C1NCC(c2cccc(OCC3CC3)c2)C1C(=O)Nc1ccc(F)cc1F (stereo not shown) [Compound 3] | 0 | 30 | 0 | 30 | 0 | 20 | 20 | 40 | 60 | 0 | 20 | 0 | 0 | 10 | 0 | 0 | 0 | 40 | 0 | 0 | Plant response rating, Foxtail, Giant ([4]; 500 g ai/ha): 80; Plant response rating, Wheat [5, 17]: 20; Plant response rating, Foxtail, Giant [6, 17]: 70; Plant response rating, Kochia (kochia (Kochia scoparia) [7]; 500 g ai/ha): 20; Plant response rating, Kochia (kochia (Kochia scoparia) [8]; [17]): 40; Plant response rating, Barnyardgrass [9, 17]: 60; Plant response rating, Pigweed [10, 17]: 0; Plant response rating, Ryegrass, Italian ([11]; 500 g ai/ha): 20; Plant response rating, Ragweed ([12]; 500 g ai/ha): 0; Plant response rating, Barnyardgrass ([13]; 500 g ai/ha): 70; Plant response rating, Ragweed [14, 17]: 0; Plant response rating, Pigweed ([15]; 500 g ai/ha): 0
3 | CN1CC(c2cccc(Oc3ncc(F)cc3F)c2)C(C(=O)Nc2ccccc2F)C1=O (single isomer, unassigned) [Compound 72] | 60 |  | 50 |  | 20 |  | 60 |  | 90 | 20 | 90 | 0 | 20 | 90 | 30 | 50 | 0 | 90 | 30 | 0 | Plant response rating, Blackgrass ([1]; 31 g ai/ha): 20; Plant response rating, Ryegrass, Italian ([2]; 31 g ai/ha): 20; Plant response rating, Corn (corn (Zea mays); 31 g ai/ha): 0; Plant response rating, Galium ([3]; 31 g ai/ha): 40; Plant response rating, Foxtail, Giant ([4]; 31 g ai/ha): 90; Plant response rating, Wheat ([5]; 31 g ai/ha): 0; Plant response rating, Foxtail, Giant ([6]; 31 g ai/ha): 80; Plant response rating, Kochia (kochia (Kochia scoparia) [7]; 31 g ai/ha): 0; Plant response rating, Kochia (kochia (Kochia scoparia) [8]; 31 g ai/ha): 0; Plant response rating, Barnyardgrass ([9]; 31 g ai/ha): 60; Plant response rating, Pigweed ([10]; 31 g ai/ha): 0; Plant response rating, Ryegrass, Italian ([11]; 31 g ai/ha): 0; Plant response rating, Ragweed ([12]; 31 g ai/ha): 0; Plant response rating, Barnyardgrass ([13]; 31 g ai/ha): 90; Plant response rating, Ragweed ([14]; 31 g ai/ha): 0; Plant response rating, Pigweed ([15]; 31 g ai/ha): 0
4 | O=C1NCC(c2cccc(Cn3cccn3)c2)C1C(=O)Nc1ccccc1F (stereo not shown) [Compound 27] | 0 | 0 | 0 | 0 | 0 | 0 | 0 | 0 | 20 | 0 | 40 | 0 | 0 | 40 | 0 | 0 | 0 | 0 | 0 | 0 | Plant response rating, Foxtail, Giant ([4]; 500 g ai/ha): 30; Plant response rating, Wheat [5, 17]: 0; Plant response rating, Foxtail, Giant [6, 17]: 50; Plant response rating, Kochia (kochia (Kochia scoparia) [7]; 500 g ai/ha): 0; Plant response rating, Kochia (kochia (Kochia scoparia) [8]; [17]): 0; Plant response rating, Barnyardgrass [9, 17]: 70; Plant response rating, Pigweed [10, 17]: 0; Plant response rating, Ryegrass, Italian ([11]; 500 g ai/ha): 0; Plant response rating, Ragweed ([12]; 500 g ai/ha): 0; Plant response rating, Barnyardgrass ([13]; 500 g ai/ha): 20; Plant response rating, Ragweed [14, 17]: 0; Plant response rating, Pigweed ([15]; 500 g ai/ha): 0
5 | O=C1NCC(c2cccc(Cn3cccn3)c2)C1C(=O)Nc1ccc(F)c(F)c1F (stereo not shown) [Compound 26] | 0 | 0 | 0 | 0 | 0 | 0 | 0 | 0 | 40 | 0 | 30 | 0 | 0 | 30 | 0 | 0 | 0 | 40 | 0 | 0 | Plant response rating, Foxtail, Giant ([4]; 500 g ai/ha): 90; Plant response rating, Wheat [5, 17]: 0; Plant response rating, Foxtail, Giant [6, 17]: 60; Plant response rating, Kochia (kochia (Kochia scoparia) [7]; 500 g ai/ha): 0; Plant response rating, Kochia (kochia (Kochia scoparia) [8]; [17]): 0; Plant response rating, Barnyardgrass [9, 17]: 70; Plant response rating, Pigweed [10, 17]: 0; Plant response rating, Ryegrass, Italian ([11]; 500 g ai/ha): 0; Plant response rating, Ragweed ([12]; 500 g ai/ha): 0; Plant response rating, Barnyardgrass ([13]; 500 g ai/ha): 90; Plant response rating, Ragweed [14, 17]: 0; Plant response rating, Pigweed ([15]; 500 g ai/ha): 0
